These results are taken from paper PMC8362001 (Angewandte Chemie (International Ed. in English), 2021).

Structures are written as SMILES.

Series [1] can be described thus: Hydrolysis of the P−N bond under acidic conditions. Format: physicochemical. The note with it: slightly acidic conditions (pH≤3).
Another series has as its target eGFP (C70M S147C) (Aequorea victoria, UniProt P42212, C70M/F64L/H231L/S147C/S65T). Kind of series: Second-order rate constant of the reaction with eGFP, intact protein MS. The note with it: one equivalent of eGFP (C70M S147C), Tris buffer pH 8.3, 90 μM, room temperature, eGFP C70M as internal standard, triplicate.

Take `C#CP(=O)(C#C)N(CC)CC` [II]: the “Hydrolytic stability of the P−N bond” value in series [1] is reported as “rapid hydrolysis of the P−N bond”.
`C#CCCOP(=O)(C#C)C#C` [compound 2]: the “second‐order rate constant” value at eGFP (C70M S147C) is “approximately 0.47 M^−1 s^−1”.
